Where “and” joins values, the source holds several entries; their conditions need not be identical. Equal entries are not always repeated. Entries after “also recorded” stand apart in the source; their conditions may differ. Structures can show the parent of a compound that is named as a salt.
Columns and labels:
[1] = In vitro diffusion of [^14C]-Terbinafine at the nail bed of drilled human nails, quantitative whole body autoradiography (QWBA); assay type: in vitro ADME; details: for diffusion of radioactivity between the holes: 2 mm and 4 mm spaced holes
Excerpt: Four frozen human cadaver fingertips with nails were used. Each fingernail contained two series of three holes, one set at 2 mm apart and the other set at 4 mm apart.
The samples were placed in a Transwell plate containing 3 milliLiters (mL) of culture medium. Three of the nails received an application of the radiolabeled test item during one hour; one received an application of a non-radiolabeled test item. A finite dose (5 microLiters (μL)) of formulation was applied on the nail surface. Incubation was conducted for 1 hour at 37° C., 5% CO2 and saturated hygrometry. At the end of the incubation, excess of formulation was removed from the nail surface.
Each sample was frozen onto a support using adapted QWBA procedures. Sections were then taken through each fingernail onto tape and were analyzed using QWBA methods to determine the diffusion of radioactivity at the nail bed level from each site of administration. A 3-dimensional graph of the concentration of radioactivity was then created to visualize the diffusion through the nail matrix.
In vitro diffusion of [^14C]-Terbinafine on nail beds was studied on drilled human hand nails. Four samples were used through the study and were drilled as follows: • On each sample: 3 holes of 0.6 mm diameter, with 2 mm distance between each hole and 3 holes of 0.6 mm diameter, with 4 mm distance between each hole • 3 samples were treated with 10% [^14C]-Terbinafine in amphoteric solution One sample was treated with placebo • Treatment duration: 1 hour • 5 μL of test item were applied on each nail • Incubation at 37° C., 5% CO2 and saturated hygrometry during 1 hour • At the end of the incubation period, the excess of test item was removed and the samples were stored at −80° C. before processing for autoradiography analysis.
(§1) Three of the nails received an application of the radiolabeled test item, whilst the other nail received an application of the unlabelled test item as follows: • Samples A, B and C (Treated samples): 5 μL of the formulation containing 10% [^14C]-Terbinafine were applied on the surface of each of the nail samples. • Sample D (Control sample): 5 μL of the formulation containing 10% Terbinafine were applied on the surface of the nail sample.
(§2) The culture plate containing the nail samples was placed in a culture incubator kept at 37° C., 5% CO2 and saturated hygrometry. The duration of the nail treatment was 1 hour.
At the end of the treatment period, the excess of the formulation remaining on the nail was wiped off using a dried cotton swab and five successive cotton swabs wetted with absolute ethanol. These cotton swabs were discarded. The nail samples were then stored at −80° C., and shipped frozen for analysis by autoradiography.
The samples (four human fingernails) were received deeply frozen on solid CO2 and immediately transferred to storage in a freezer set to maintain a temperature of −80° C. A supporting block was prepared to support each sample during sectioning. Specifically, a mould was filled with 2% carboxymethylcellulose solution and frozen in a mixture of dry ice and hexane. The frozen finger was fixed in a horizontal position on a cork disc using a cryo-matrix and the disc was then fixed to the carboxymethylcellulose block with a further cryo-matrix. The finger was embedded so that the nail was facing to the side and to ensure that each series of holes was as horizontal as possible (dependant on the alignment of the drilled holes). A further cryomatrix was added around each finger to provide additional support during sectioning. The frozen blocks were stored in a freezer set to maintain a temperature of −20° C. prior to and following sectioning.
Each nail was sectioned through until immediately adjacent to the uppermost hole in the series. Horizontal sections (approximately 30 μm thick) were then taken through each fingernail onto adhesive tape. […]

[2] = Radioactivity level in the culture medium (receiver chamber) at the end of the treatment period, liquid scintillation counting; assay type: in vitro ADME, human; details: for radioactivity in culture medium, mean / radioactivity in culture medium, whole receiver chamber: 1 hour treatment; for radioactivity in culture medium, single counts: 5 μL of 10% formulation on drilled nail, 1 hour, 37° C., triplicate counts, hydrochloride; for Applied dose (%) found in culture medium: applied dose 1106175 dpm
Experimental: Each nail sample was then placed on a cell culture insert. Each insert was introduced into a receiver chamber of a 6-well culture plate. The receiver chamber was filled with 3 mL HHBSS containing antibiotics (2% penicilline-streptomycine).
as §1, §2
In order to check the specificity of the incubation system (no radioactive contamination due to leakage of applied formulation through the insert), the radioactivity level was measured in the culture medium at the end of the treatment period. Each receiver chamber medium was controlled in triplicate by liquid scintillation counting as follows: 100 μL of culture medium was directly counted by liquid scintillation counting using 10 mL of HIONIC FLUOR available from Perkin Elmer. The results presented in the table below show a very low radioactivity level in culture medium of sample A and sample C. The radioactivity level only represented 1.6% of the applied dose in sample A and 0.1% of the applied dose in sample C. These radioactivity levels were considered negligible and could not compromise the results of the study.

CN(C/C=C/C#CC(C)(C)C)Cc1cccc2ccccc12 [Terbinafine]
localization of diffusion (plots of FIGS. 4, 6, 8, 10, 12, 14) ([1]; Nails A to C, 2 mm and 4 mm hole sets): particularly localized to the holes in the nail

CN(C/C=C/C#CC(C)(C)C)Cc1cccc2ccccc12 [[^14C]-Terbinafine, Terbinafine hydrochloride]
diffusion of radioactivity between the holes ([1]; Nail A, 1 hour): little diffusion of radioactivity between the holes
concentrations of radioactivity between the holes ([1]; Nail A, 4 mm spacing, 1 hour): decrease to background levels between the holes
diffusion of radioactivity between the holes ([1]; Nail B, 1 hour): little diffusion of radioactivity between the holes
concentrations of radioactivity between the holes ([1]; Nail B, 4 mm spacing, 1 hour): decrease to background levels between the holes
diffusion of radioactivity between the holes ([1]; Nail C, 1 hour, holes did not receive a full application): little diffusion of radioactivity between the holes
concentrations of radioactivity between the holes ([1]; Nail C, 4 mm spacing, 1 hour): decrease to background levels between the holes
diffusion at the nail bed level around the holes ([1]; overall conclusion): diffusion of the radiolabeled drug at the nail bed level around the holes
radioactive signal on the surface of nail plates ([1]; overall conclusion): marked radioactive signal
diffusion of radioactivity between the holes, 4 mm versus 2 mm spacing ([1]; overall conclusion, Nails A to C, hydrochloride): little diffusion of radioactivity between the 4 mm spaced holes compared to the 2 mm spaced holes; also recorded: little diffusion of radioactivity between the 4 mm spacing holes compared to the 2 mm spacing holes
concentrations of radioactivity between the holes ([1]; overall conclusion, 4 mm spaced holes, hydrochloride): decreased to background radiation levels between the holes; also recorded: decrease to background levels between the holes
radioactivity in culture medium, mean ([2]; Mean sample A): 575.7 dpm/100 μL
radioactivity in culture medium, whole receiver chamber ([2]; Mean sample A): 17270 dpm/3 mL
radioactivity in culture medium, whole receiver chamber ([2]; Mean sample B): BLQ
radioactivity in culture medium, mean ([2]; Mean sample B, LOQ 54 dpm): 46.3 dpm/100 μL
radioactivity in culture medium, whole receiver chamber ([2]; Mean sample C): 1640 dpm/3 mL
radioactivity in culture medium, mean ([2]; Mean sample C, LOQ 54 dpm): 54.7 dpm/100 μL
radioactivity in culture medium, single counts ([2]; Sample A): 494 dpm/100 μL and 621 dpm/100 μL and 612 dpm/100 μL
Applied dose (%) found in culture medium ([2]; Sample A): 1.6%
radioactivity in culture medium, single counts ([2]; Sample B): 48 dpm/100 μL and 49 dpm/100 μL and 42 dpm/100 μL
Applied dose (%) found in culture medium ([2]; Sample B): 0%
radioactivity in culture medium, single counts ([2]; Sample C): 49 dpm/100 μL and 52 dpm/100 μL and 63 dpm/100 μL
Applied dose (%) found in culture medium ([2]; Sample C): 0.1%
